Results: patent publication EP0888322B1, “ELECTROPHILIC KETONES FOR THE TREATMENT OF HERPESVIRUS INFECTIONS” (G.D. SEARLE & CO., priority 1996, dated 1997)

What was measured:
[1] = biological target: HCMV protease (Assemblin) (Human cytomegalovirus, UniProt P16753); experiment: Enzymatic assay for HCMV protease (Assemblin) inhibitors, chromogenic pNA substrate; assay type: biochemical
Procedure: Assemblin protease activity was determined using a chromogenic para-nitroanilide (pNA) substrate based on the hCMV maturation cleavage site, succinyl-AGVVNA-paranitroanilide. […] Potential protease inhibitors were dissolved in DMSO and 10 µL were added to the wells of a 96-well plate (Dynatech, Immulon 1). Enzyme was diluted to 4.8 µg/mL in assay buffer (10 mM sodium phosphate, pH 7.4, 150 mM sodium acetate, 0.1% CHAPS, 20% glycerol) and 100 µL were added to each well. Following a 30 minute incubation at room temperature, 50 µL substrate (1 part 20 mM succinyl-AGVVNA-paranitroanilide (SEQID:1) in DMSO plus 9 parts assay buffer) were added, and periodic readings taken in a microplate reader at 405 nm relative to 650 nm. Activities were expressed as milliabsorbance unit (mAU) change per minute. Inhibitor potency was determined by comparison with incubations lacking inhibitor, which under these conditions gave an increase of 0.5-1 mAU/min. No increase was seen when enzyme was omitted. Results [IC50 (µM)] are included in Table 1.
The construction also encoded six additional histidine residues at the amino terminus of the protease. These additional histidine residues provided an affinity ligand by which it was purified using nickel-nitriloacetic acid-agarose (Qiagen).
The purified protease was stored as a 1-3 mg/ml stock solution in 20 mM HEPES buffer, pH 7.4; containing 20% (v/v) glycerol. This stock was diluted with assay buffer to 4.8 µg/ml. A 100 µL aliquot of this solution was used in the enzyme reaction.
A specific substrate was synthesized based on the cleavage specificity of HCMV protease at the "maturation site" of the assembly protein (F. Liu and B. Roizman, J. Virol., 65, 5149 (1991), and A. Welch, et al, J. Virol., 65, 4091 (1991)). The assembly protein maturation site has the sequence ...AGVVNA*SCRLATA...; the substrate used was succinyl-[…] (SEQID:1) which was prepared by standard peptide synthetic methods such as that described in Bodansky and Bodansky, "The Practice of Peptide Synthesis" (1984), and was stored as a stock solution at 20 mM in dimethyl sulfoxide. This was diluted 10-fold with assay buffer to give a concentration of 2 mM just before use. An aliquot of 50 µL was used in the reaction
An assay Buffer (10 mM sodium phosphate buffer, pH 7.4; 150 mM sodium acetate; 0.1% CHAPS; and 20% (v/v) glycerol) was used to dilute stock solutions of enzyme and substrate.

[2] = biological target: T1, Bovine pancreas α-chymotrypsin (Bos taurus, UniProt P00766, DEL14-15/DEL147-148); experiment: Chymotrypsin assay; assay type: biochemical; details: read-out: Chymotrypsin % @ Conc.
T1 construct: Bovine pancreas α-chymotrypsin (type II, Sigma); purchased Sigma type II; host or cells: bovine pancreas
Procedure: The chymotrypsin assay was modified from the method of Delmar et al [Anal. Biochem., 99, 316-320 (1979)]. Bovine pancreas α-chymotrypsin (type II, Sigma) was dissolved in 0.001 N HCl at 1 mg/ml and further diluted 1/600 in assay buffer (0.1 M Tris, pH 7.8, containing 0.1 M CaCl2) before use. 20 µl of test compound in DMSO (or DMSO alone), 100 µl of assay buffer and 30 µl of enzyme were added to 96 well plates, mixed and pre-incubated for 30 minutes at ambient temperature. Reaction was initiated by addition of 50 µl of 0.2 mM N-succinyl-Ala-Ala-Pro-Phe-p-nitroanilide (Sigma; 2 mM in DMSO diluted 1/10 in assay buffer before use). The increase in absorbance at 405 nm was monitored for 10 minutes with a Biotek EL340 plate reader.

in vitro [3] = assay type: cell-based; details: human
Description: (§1) These complimentary assays tested the ability of a compound to inhibit the production of new virus and the toxicity of the compound to the host cells. It was important that both assays be performed simultaneously in order to compare the results directly since, toxicity may indirectly reduce viral yield.
(§2) Viral yield was estimated by measuring the amount of a viral antigen produced 4 days post infection with a monoclonal antibody to an abundant "immediate early" viral protein. An enzyme-linked (horseradish peroxidase) secondary antibody specific to the primary (mouse) antibody was used to measure the amount of viral antigen. Test compounds were diluted to 2-times the desired final concentration in DMEM + 5% FBS. One hundred microliters of this solution was placed in each well of a 96-well plate. This was performed once for the antiviral 96-well plate and again for a cytotoxicity plate. Two controls were also included for both plates; a no drug control and a no virus control. Ganciclovir was routinely tested in antiviral and cytotoxicity plates as a reference standard because it has known antiviral activity for HCMV. All cells were prepared by harvesting human foreskin fibroblasts, with trypsin and re-suspending at a concentration of 5 X 10^5 cells per ml in DMEM. Infected cells were prepared by infecting these with HCMV (strain AD169) at a multiplicity of infection = 0.2. One hundred microliters of uninfected cells (5 x 10^4 cells) were added to the appropriate wells of the cytotoxicity plate. In a similar manner 100 µl of infected cells (5 x 10^4 cells) were added to the appropriate wells of the antiviral plate. Additionally, uninfected cells not treated with test compound were included as controls on the antiviral plate. Plates were incubated for 96 hours at 37°C in 5% CO2 atmosphere and processed to measure the amount of viral antigen and toxicity.
(§3) In this assay, HCMV replication was monitored by the production of E. coli beta-galactosidase by the engineered virus RC256 [Spaete and Mocarski, Proc.Nat.Acad.Sci., 84, 7213 (1987)]. One antiviral assay and one cytotoxicity assay were done for each compound. Dilutions of test compounds and infection of cells in a 96-well plate was essentially as described above for the HCMV ELISA except for the following. Human foreskin fibroblasts at 3.5 x 10^5 cells per milliliter were infected in solution with RC256 at 0.05 pfu per cell. Compounds and cells were incubated 3 days and processed at […]. For the beta galactosidase detection, the supernatant was aspirated from the antiviral assay plates and 50 µl Reporter Lysis Buffer (Promega, diluted to 1X with water) was added per well. The plates were incubated at room temperature at least 30 minutes and plates were frozen at -20 °C at this point for later processing. 50 µl of 2X assay buffer [120 mM Na2HPO4, 80 mM NaH2PO4, 2 mM MgCl2, 100 mM 2-mercaptoethanol, 4.4 mM ONPG (Sigma)] was added per well and incubated at room temperature 30 to 45 minutes. The reaction was stopped with 100 µl 1M CAPS buffer, pH = 11.0, per well and the optical density was read at 410 nanometers. Ganciclovir was used as a positive control and the EC50 was determined as described above for the HCMV ELISA. Results (EC50/TD50) are included in Table 1.

[4] = biological target: T2, Human leukocyte elastase (HLE) (Homo sapiens, UniProt P08246); experiment: Human leukocyte elastase assay; assay type: biochemical; details: read-out: HLE % @ Conc.
T2 construct: gift of R. Senior, Washington University
T2 sequence (P08246 30-267): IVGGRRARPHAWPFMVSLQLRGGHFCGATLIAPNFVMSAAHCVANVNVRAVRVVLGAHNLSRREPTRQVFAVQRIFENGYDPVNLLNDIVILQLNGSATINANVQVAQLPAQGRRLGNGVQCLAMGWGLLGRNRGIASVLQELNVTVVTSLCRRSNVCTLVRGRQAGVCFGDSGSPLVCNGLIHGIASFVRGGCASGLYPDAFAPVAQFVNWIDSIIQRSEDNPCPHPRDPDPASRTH
Procedure: Human leukocyte elastase (HLE) (gift of R. Senior, Washington University) was dissolved in saline at 1 mg/ml and further diluted 1/20 in assay buffer (0.2 M Tris, pH 8.0) before use. 10 µl of test compound in DMSO (or DMSO alone), 100 µl of assay buffer and 50 µl of enzyme were added to 96 well plates, mixed and pre-incubated for 30 minutes at ambient temperature. Reaction was initiated by addition of 40 µl of 2.5 mM methoxysuccinyl-Ala-Ala-Pro-Val-p-nitroanilide (Sigma; 25 mM in DMSO diluted 1/10 in assay buffer before use). The increase in absorbance at 405 nm was monitored for 10 minutes with a Biotek EL340 plate reader.

RC256 = experiment: Recombinant human cytomegalovirus antiviral assay (RC256, beta-galactosidase); assay type: cell-based, HCMV; details: Human betaherpesvirus 5, read-out: Antiviral Activity EC50
Description: as §1, §3

in vitro [5] = assay type: cell-based; details: human, foreskin fibroblasts
Description: as §1
as §2, with “One hundred microliters of uninfected cells (5 x 10^4 cells) were added to the appropriate wells of the cytotoxicity plate. In a similar manner 100 µl of infected cells (5 x 10^4 cells) were added to the appropriate wells of the antiviral plate. Additionally, uninfected cells not treated with test compound were included as controls on the antiviral plate. Plates were incubated for 96 hours at 37°C in 5% CO2 atmosphere and processed to measure the amount of viral antigen and toxicity.” left out

HCMV (strain AD169) = experiment: Antiviral assay, ELISA for HCMV antigens; assay type: cell-based; details: Human betaherpesvirus 5, AD169, 96 hours
Description: as §1
(§4) Viral yield was estimated by measuring the amount of a viral antigen produced 4 days post infection with a monoclonal antibody to an abundant "immediate early" viral protein. An enzyme-linked (horseradish peroxidase) secondary antibody specific to the primary (mouse) antibody was used to measure the amount of viral antigen. Test compounds were diluted to 2-times the desired final concentration in DMEM + 5% FBS. One hundred microliters of this solution was placed in each well of a 96-well plate. This was performed once for the antiviral 96-well plate and again for a cytotoxicity plate. Two controls were also included for both plates; a no drug control and a no virus control. […]
(§5) The following was performed on the antiviral plate only. […] The reaction was stopped by adding 100 µL of phosphoric acid and the OD at 450 nm recorded. […] Antiviral activity was calculated by comparing the amount of viral antigen produced in drug treated wells with that produced in wells absent of drug. […]

HCMV = HCMV antiviral assay, format (RC256 or ELISA) not given; assay type: cell-based; details: Human betaherpesvirus 5, read-out: Antiviral Activity EC50
Description: as §1
as §4, with “plate.” for “plate. Two controls were also included for both plates; a no drug control and a no virus control.”
as §5
In this assay, HCMV replication was monitored by the production of E. coli beta-galactosidase by the engineered virus RC256 [Spaete and Mocarski, Proc.Nat.Acad.Sci., 84, 7213 (1987)]. […]

[6] = read-out: Assemblin Protease % @ Conc.

Chain of HCMV protease (Assemblin) (P16753 1-256): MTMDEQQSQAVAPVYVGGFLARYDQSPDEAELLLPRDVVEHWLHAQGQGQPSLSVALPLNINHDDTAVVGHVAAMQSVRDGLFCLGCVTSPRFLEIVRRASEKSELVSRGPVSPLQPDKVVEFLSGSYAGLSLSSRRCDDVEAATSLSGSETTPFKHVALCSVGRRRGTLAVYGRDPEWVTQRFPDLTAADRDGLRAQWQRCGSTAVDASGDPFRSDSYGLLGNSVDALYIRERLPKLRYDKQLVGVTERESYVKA

Molecule: COc1ccccc1C(=O)Nc1ccccc1C(=O)C(F)(F)F [Example 12, N-[2-(2,2,2-trifluoro-1-oxoethyl)phenyl]2-methoxybenzamide]
- inhibition at 33 µM [1, 6]: 14%

Molecule: O=C(CCc1ccccc1)Nc1ccccc1C(=O)C(F)(F)F [Example 4, N-[2-(2,2,2-trifluoro-1-oxoethyl)phenyl]benzenepropanamide]
- inhibition at 100 µM [2]: 11%

Molecule: O=C(CCc1ccccc1)Nc1cc(F)ccc1C(=O)C(F)(F)F [Example 2, N-[5-fluoro-2-(2,2,2-trifluoro-1-oxoethyl)phenyl]benzenepropanamide]
- CC50 (in vitro [3]; foreskin fibroblasts): > 100 µM
- inhibition at 100 µM [2]: 48%
- inhibition at 100 µM ([4]; @ 100 µM): 26%
- EC50 (RC256): 57 µM

Molecule: O=C(Nc1ccccc1C(=O)C(F)(F)F)C(F)(F)F [Example 10, α,α,α-trifluoro-N-[2-(2,2,2-trifluoro-1-oxoethyl)phenyl]acetamide]
- inhibition at 10 µM ([1]; @ 10 µM, read-out: Assemblin Protease % @ Conc.): 39%
- inhibition at 100 µM [2]: 49%
- CC50 at 96 h (in vitro [5]): > 100 µM
- EC50 (HCMV (strain AD169)): > 100 µM

Molecule: COc1ccccc1C(=O)Nc1ccccc1C(=O)C(F)(F)C(=O)NC(C)C [Example 17, N-[2-(3-(2-propylamino)-3-oxo-2,2-difluoro-1-oxopropyl)phenyl]2-methoxyphenylcarboxamide]
- inhibition at 300 µM [2]: 0%

Molecule: O=C(Nc1ccccc1C(=O)C(F)(F)F)OCc1ccccc1 [Example 6, phenylmethyl N-[2-(2,2,2-trifluoro-1-oxoethyl)phenyl]carbamate]
- inhibition at 100 µM [2]: 21%

Molecule: O=C(CCc1ccccc1)Nc1cc([N+](=O)[O-])ccc1C(=O)C(F)(F)F [Example 7, N-[5-nitro-2-[2,2,2-trifluoro-1-oxoethyl)phenyl]benzenepropanamide]
- inhibition at 33 µM [1, 6]: 84%
- inhibition at 100 µM [2]: 27%
- CC50 at 96 h (in vitro [5]): > 100 µM
- EC50 (HCMV (strain AD169)): 16 µM

Molecule: N-[2,2,2-trifluoro-1-oxoethyl)phenyl]indolyl-2-carboxamide [Example 15]
- percent inhibition ([1]; @ 100 µM): 30% @ 100

Molecule: O=C(Nc1ccc(F)cc1C(=O)C(F)(F)F)c1ccco1 [Example 8, N-[4-fluoro-2-(2,2,2-trifluoro-1-oxoethyl)phenyl] furan-2-carboxamide]
- inhibition at 33 µM [1, 6]: 18%

Molecule: O=C(Nc1ccccc1C(=O)C(F)(F)F)c1cnccn1 [Example 5, N-[2-(2,2,2-trifluoro-1-oxoethyl)phenyl]pyrazine-2-carboxamide]
- CC50 (in vitro [3]; foreskin fibroblasts): > 100 µM
- inhibition at 300 µM [2]: 0%
- EC50 (RC256): 55 µM

Molecule: O=C(Nc1ccc(I)cc1C(=O)C(F)(F)F)c1ccco1 [Example 13, N-[4-iodo-2-(2,2,2-trifluoro-1-oxoethyl)phenyl]furan-2-carboxamide]
- CC50 (in vitro [3]; human foreskin fibroblasts): > 100 µM
- inhibition at 33 µM ([2]; @ 33 µM): 39%
- inhibition at 24 µM ([4]; @ 24 µM): 50%
- EC50 (HCMV): 28 µM

Molecule: O=C(Nc1ccccc1C(=O)C(F)(F)F)c1cc2ccccc2s1 [Example 9, N-[2-(2,2,2-trifluoro-1-oxoethyl)phenyl]-1-benzothiophene-2-carboxamide]
- CC50 (in vitro [3]; foreskin fibroblasts): > 100 µM
- inhibition at 100 µM [2]: 48%
- EC50 (RC256): 30 µM

Molecule: O=C(Nc1ccccc1C(=O)C(F)(F)F)c1ccco1 [Example 1, N-[2-(2,2,2-trifluoro-1-oxoethyl)phenyl]furan-2-carboxamide]
- CC50 (in vitro [3]; foreskin fibroblasts): > 100 µM
- inhibition at 300 µM ([4]; @ 300 µM): 25%
- EC50 (RC256): 45 µM

Molecule: O=C(Nc1ccccc1C(=O)C(F)(F)F)c1ccccn1 [Example 11, N-[2-(2,2,2-trifluoro-1-oxoethyl)phenyl]pyridine-2-carboxamide]
- inhibition at 33 µM [1, 6]: 40%
